Here are results for one molecule from patent US20210338728A1, “METHODS AND COMPOSITIONS FOR THE EXPANSION AND USE OF ALLOGENEIC GAMMA/DELTA-T CELLS” (Phosphogam, Inc., priority 2018, published 2021).

A value given as a limit tells only on which side of the number the result lay.

This assay has as its system γδ-T cells. The experiment in a line: Ex vivo expansion of human γδ-T cells from healthy donor PBMC with C-HDMPP and IL-2, flow cytometry at day 21. It counts as cell-based. The source says: Peripheral blood mononuclear cells (PBMC) were isolated from peripheral blood obtained by venipuncture from a healthy individual. Fresh blood was collected using standard aseptic technique. PBMC were isolated utilizing a standard density gradient centrifugation method. PBMC were washed in PBS, then resuspended in complete RPMI-1640 supplemented with 10% characterized fetal bovine serum and PCN+streptomycin.
Cell cultures were initiated by seeding PBMC into tissue culture flasks to which recombinant human IL-2 was added. γδ-T cell expansion was initiated by the addition of C-HDMPP. Cultures were maintained at 37° C., 5% CO2 in incubators situated within a BSL2 containment environment. Fresh media was added as needed to keep cell concentration at approximately 1×10^6 cells/ml. Human IL-2 was added every 5 days. Cultures were maintained for 21 days at which time they were analyzed by flow cytometry. […] At 100 nM C-HDMPP the cultures were ≥96% pure γδ-T cells with viability ≥96%.
On the technique in general: In flow cytometry, cells or beads pass a laser one at a time.

Where [1] appears, read: 100 nM C-HDMPP, 21 days of culture with IL-2, flow cytometry.

In the case of `C/C(=C\CCP(=O)(O)OP(=O)(O)O)CO` [C-HDMPP], under setting [1], the “purity of γδ-T cells in the cultures” value is on record as not below 96% and the “viability of the cultures” value is not below 96%. Moreover, the “γδ-T cell growth (expansion) versus concentration” value (nanomolar concentrations, 21 days, FIG. 1) is given as “can be titrated to promote optimal γδ-T cell growth while avoiding overstimulation”.
